This note sets out measurements from patent publication US12497408B2, “Tetracyclic compounds and methods for the treatment of Zika virus infection” (priority 2021, dated 2025).

The experiment has as its system ZIKV. Kind of experiment: ZIKV reporter virus-based antiviral screening on Huh7 cells. The class given is cell-based, Zika virus. The following applies: Huh7 cells infected with recombinant luciferase reporter ZIKV (MOI about 0.1), luciferase signal. The method in brief: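 Huh7 cells in 2% FBS assay medium infected at MOI about 0.1 with Renilla or Nano luciferase ZIKV premixed with nine-point compound dilutions, 48 hrs at 37° C. Luciferase signal normalized to DMSO controls as 100%; viability optionally by CellTiter-Glo with Rlu virus.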
On the technique in general: Reporter assays use an easily measured gene product as a stand-in for the process of interest.

What is called pEC50 is the EC50 on a negative log10 scale, so that one unit is a factor of ten.

pEC50: −log10 of the molar value. Bounds are passed on as bounds.

As to `CC[C@@H](C)[C@H](NC(=O)OC)C(=O)N1[C@@H](C)CC[C@H]1c1nc(Cl)c(-c2cc3c4c(c2)OCc2cc(-c5[nH]c([C@@H]6CC[C@H](C)N6C(=O)[C@@H](NC(=O)OC)[C@H](C)CC)nc5Cl)cc(c2-4)OC3)[nH]1` [Compound 33, dimethyl ((2S,2′S,3R,3′R)-((2S,2′S,5S,5′S)-((5,10-dihydrochromeno[5,4,3-cde]chromene-2,7-diyl)bis(4-chloro-1H-imidazole-5,2-diyl))bis(2-methylpyrrolidine-5,1-diyl))bis(3-methyl-1-oxopentane-1,2-diyl))dicarbamate], under “Zika virus, Huh-7, 48 h”, the pEC50 was 9.05.
On to `CC[C@H](C)[C@H](NC(=O)OC)C(=O)N1[C@@H](C)CC[C@H]1c1nc(Cl)c(-c2cc3c4c(c2)OCc2cc(-c5[nH]c([C@@H]6CC[C@H](C)N6C(=O)[C@@H](NC(=O)OC)[C@@H](C)CC)nc5C(C)C)cc(c2-4)OC3)[nH]1` [Compound 44, methyl ((2S,3S)-1-((2S,5S)-2-(5-(7-(4-chloro-2-((2S,5S)-1-((methoxycarbonyl)-L-isoleucyl)-5-methylpyrrolidin-2-yl)-1H-imidazol-5-yl)-5,10-dihydrochromeno[5,4,3-cde]chromen-2-yl)-4-isopropyl-1H-imidazol-2-yl)-5-methylpyrrolidin-1-yl)-3-methyl-1-oxopentan-2-yl)carbamate], for which the negative logarithm of the EC50 (pEC50) (Zika virus, Huh-7, 48 h) is 8.72.
Consider `CCc1nc([C@@H]2CCCN2C(=O)[C@@H](NC(=O)OC)C(C)C)[nH]c1-c1cc2c3c(c1)OCc1cc(-c4[nH]c([C@@H]5CCCN5C(=O)[C@@H](NC(=O)OC)C(C)C)nc4CC)cc(c1-3)OC2` [Compound 18, dimethyl ((2S,2′S)-((2S,2′S)-((5,10-dihydrochromeno[5,4,3-cde]chromene-2,7-diyl)bis(4-ethyl-1H-imidazole-5,2-diyl))bis(pyrrolidine-2,1-diyl))bis(3-methyl-1-oxobutane-1,2-diyl))dicarbamate], for which the pEC50 (Zika virus, Huh-7, 48 h) is 6.59.
In the case of `COC(=O)N[C@H](C(=O)N[C@H](c1nc(Cl)c(-c2cc3c4c(c2)OCc2cc(-c5[nH]c([C@@H](NC(=O)[C@@H](NC(=O)OC)C(C)C)C(C)(C)C)nc5Cl)cc(c2-4)OC3)[nH]1)C(C)(C)C)C(C)C` [Compound 20, dimethyl ((2S,2′S)-(((1S,1′S)-((5,10-dihydrochromeno[5,4,3-cde]chromene-2,7-diyl)bis(4-chloro-1H-imidazole-5,2-diyl))bis(2,2-dimethylpropane-1,1-diyl))bis(azanediyl))bis(3-methyl-1-oxobutane-1,2-diyl))dicarbamate], for the setting “Zika virus, Huh-7, 48 h”, the pEC50 was below 6.43.
Still for that read-out and setting: the result for `CC[C@@H](C)[C@H](NC(=O)OC)C(=O)N1CC2(CC2)C[C@H]1c1nc(Cl)c(-c2cc3c4c(c2)OCc2cc(-c5[nH]c([C@@H]6CC7(CC7)CN6C(=O)[C@@H](NC(=O)OC)[C@H](C)CC)nc5C(C)C)cc(c2-4)OC3)[nH]1` [Compound 83, methyl ((2S,3R)-1-((S)-6-(5-(7-(4-chloro-2-((S)-5-((methoxycarbonyl)-L-alloisoleucyl)-5-azaspiro[2.4]heptan-6-yl)-1H-imidazol-5-yl)-5,10-dihydrochromeno[5,4,3-cde]chromen-2-yl)-4-isopropyl-1H-imidazol-2-yl)-5-azaspiro[2.4]heptan-5-yl)-3-methyl-1-oxopentan-2-yl)carbamate] reads 8.62.
For `CC[C@H](C)[C@H](NC(=O)OC)C(=O)N1C[C@@H](C)C[C@H]1c1ncc(-c2cc3c4c(c2)OCc2cc(-c5[nH]c([C@@H]6C[C@H](C)CN6C(=O)[C@@H](NC(=O)OC)[C@@H](C)CC)nc5C(C)C)cc(c2-4)OC3)[nH]1` [Compound 70, methyl ((2S,3S)-1-((2S,4S)-2-(4-isopropyl-5-(7-(2-((2S,4S)-1-((methoxycarbonyl)-L-isoleucyl)-4-methylpyrrolidin-2-yl)-1H-imidazol-5-yl)-5,10-dihydrochromeno[5,4,3-cde]chromen-2-yl)-1H-imidazol-2-yl)-4-methylpyrrolidin-1-yl)-3-methyl-1-oxopentan-2-yl)carbamate], the pEC50 (Zika virus, Huh-7, 48 h) is 7.76.
Consider `COC(=O)N[C@H](C(=O)N1[C@H](c2nc(Cl)c(-c3cc4c5c(c3)OCc3cc(-c6[nH]c([C@@H]7C[C@@H]8C[C@@H]8N7C(=O)[C@@H](NC(=O)OC)C(C)C)nc6Cl)cc(c3-5)OC4)[nH]2)C[C@@H]2C[C@@H]21)C(C)C` [Compound 11, dimethyl ((2S,2′S)-((1S,1′S,3S,3′S,5S,5′S)-((5,10-dihydrochromeno[5,4,3-cde]chromene-2,7-diyl)bis(4-chloro-1H-imidazole-5,2-diyl))bis(2-azabicyclo[3.1.0]hexane-3,2-diyl))bis(3-methyl-1-oxobutane-1,2-diyl))dicarbamate], for which the pEC50 (48 hrs) is 8.03.
As for `COC(=O)N[C@H](C(=O)N1[C@@H](C)CC[C@H]1c1nc(Cl)c(-c2cc3c4c(c2)OCc2cc(-c5[nH]c([C@@H]6CC[C@H](C)N6C(=O)[C@@H](NC(=O)OC)C(C)C)nc5Cl)cc(c2-4)OC3)[nH]1)C(C)C` [Compound 74, dimethyl ((2S,2′S)-((2S,2′S, 5S,5′S)-((5,10-dihydrochromeno[5,4,3-cde]chromene-2,7-diyl)bis(4-chloro-1H-imidazole-5,2-diyl))bis(2-methylpyrrolidine-5,1-diyl))bis(3-methyl-1-oxobutane-1,2-diyl))dicarbamate], for the setting “Zika virus, Huh-7, 48 h”, the pEC50 is 8.70.
As for `COC(=O)N[C@H](C(=O)N1[C@@H](C)CC[C@H]1c1nc(Cl)c(-c2cc3c4c(c2)OCc2cc(-c5[nH]c([C@@H]6CC[C@H](C)N6C(=O)[C@@H](NC(=O)OC)C(C)C)nc5C(C)C)cc(c2-4)OC3)[nH]1)C(C)C` [Compound 43, methyl ((S)-1-((2S,5S)-2-(5-(7-(4-chloro-2-((2S,5S)-1-((methoxycarbonyl)-L-valyl)-5-methylpyrrolidin-2-yl)-1H-imidazol-5-yl)-5,10-dihydrochromeno[5,4,3-cde]chromen-2-yl)-4-isopropyl-1H-imidazol-2-yl)-5-methylpyrrolidin-1-yl)-3-methyl-1-oxobutan-2-yl)carbamate], the pEC50 (Zika virus, Huh-7, 48 h) was 8.80.
Turning to `COC(=O)N[C@H](C(=O)N1[C@H](C)CC[C@H]1c1nc(Cl)c(-c2cc3c4c(c2)OCc2cc(-c5[nH]c([C@@H]6CC[C@@H](C)N6C(=O)[C@@H](NC(=O)OC)C(C)C)nc5Cl)cc(c2-4)OC3)[nH]1)C(C)C` [Compound 62, dimethyl ((2S,2′S)-((2R,2′R,5S,5′S)-((5,10-dihydrochromeno[5,4,3-cde]chromene-2,7-diyl)bis(4-chloro-1H-imidazole-5,2-diyl))bis(2-methylpyrrolidine-5,1-diyl))bis(3-methyl-1-oxobutane-1,2-diyl))dicarbamate], the negative-log EC50 (pEC50) (Zika virus, Huh-7, 48 h) is 7.75.
As to `COC[C@H]1CC[C@@H](c2nc(Cl)c(-c3cc4c5c(c3)OCc3cc(-c6[nH]c([C@@H]7CC[C@H](COC)N7C(=O)[C@@H](NC(=O)OC)C(C)C)nc6Cl)cc(c3-5)OC4)[nH]2)N1C(=O)[C@@H](NC(=O)OC)C(C)C` [Compound 49, dimethyl ((2S,2′S)-((2R,2′R,5S,5′S)-((5,10-dihydrochromeno[5,4,3-cde]chromene-2,7-diyl)bis(4-chloro-1H-imidazole-5,2-diyl))bis(2-(methoxymethyl)pyrrolidine-5,1-diyl))bis(3-methyl-1-oxobutane-1,2-diyl))dicarbamate], the pEC50 (Zika virus, Huh-7, 48 h) was 8.72.
The same measure, in the same setting: the result for `COC(=O)N[C@H](C(=O)N1[C@@H](C)CC[C@H]1c1nc(Cl)c(-c2cc3c4c(c2)OCc2cc(-c5[nH]c([C@@H]6CC[C@H](C)N6C(=O)[C@@H](NC(=O)OC)C(C)(C)C)nc5Cl)cc(c2-4)OC3)[nH]1)C(C)(C)C` [Compound 31, dimethyl ((2S,2′S)-((2S,2′S,5S,5′S)-((5,10-dihydrochromeno[5,4,3-cde]chromene-2,7-diyl)bis(4-chloro-1H-imidazole-5,2-diyl))bis(2-methylpyrrolidine-5,1-diyl))bis(3,3-dimethyl-1-oxobutane-1,2-diyl))dicarbamate] reads 8.96; that for `COC(=O)N[C@H](C(=O)N1[C@H](c2nc(Cl)c(-c3cc4c5c(c3)OCc3cc(-c6[nH]c([C@@H]7C[C@@H]8CCC[C@@H]8N7C(=O)[C@@H](NC(=O)OC)C(C)(C)C(F)(F)F)nc6Cl)cc(c3-5)OC4)[nH]2)C[C@@H]2CCC[C@@H]21)C(C)(C)C(F)(F)F` [Compound 35, dimethyl ((2S,2′S)-((2S,2′S,3aS,3a′S,6aS,6a′S)-((5,10-dihydrochromeno[5,4,3-cde]chromene-2,7-diyl)bis(4-chloro-1H-imidazole-5,2-diyl))bis(hexahydrocyclopenta[b]pyrrole-2,1(2H)-diyl))bis(4,4,4-trifluoro-3,3-dimethyl-1-oxobutane-1,2-diyl))dicarbamate], 8.35.
`CC[C@H](C)[C@H](NC(=O)OC)C(=O)N1[C@@H](C)CC[C@H]1c1nc(Cl)c(-c2cc3c4c(c2)OCc2cc(-c5[nH]c([C@@H]6CC[C@H](C)N6C(=O)[C@@H](NC(=O)OC)[C@@H](C)CC)nc5Cl)cc(c2-4)OC3)[nH]1` [Compound 28, dimethyl ((2S,2′S,3S,3′S)-((2S,2′S,5S,5′S)-((5,10-dihydrochromeno[5,4,3-cde]chromene-2,7-diyl)bis(4-chloro-1H-imidazole-5,2-diyl))bis(2-methylpyrrolidine-5,1-diyl))bis(3-methyl-1-oxopentane-1,2-diyl))dicarbamate]: under “Zika virus, Huh-7, 48 h”, the pEC50 is 8.80.
`COC(=O)N[C@H](C(=O)N1[C@H](c2nc(Cl)c(-c3cc4c5c(c3)OCc3cc(-c6[nH]c([C@@H]7C[C@@H]8CCCC[C@@H]8N7C(=O)[C@@H](NC(=O)OC)C(C)C)nc6Cl)cc(c3-5)OC4)[nH]2)C[C@@H]2CCCC[C@@H]21)C(C)C` [Compound 37, dimethyl ((2S,2′S)-((2S,2′S,3aS,3a′S,7aS,7a′S)-((5,10-dihydrochromeno[5,4,3-cde]chromene-2,7-diyl)bis(4-chloro-1H-imidazole-5,2-diyl))bis(octahydro-1H-indole-2,1-diyl))bis(3-methyl-1-oxobutane-1,2-diyl))dicarbamate]: the pEC50 (Zika virus, Huh-7, 48 h) was 8.24.
